Results published in patent publication US7321059B2, “Compounds for use as surfactants” (Glaxo Group Limited, priority 2001, dated 2008).

How the values were obtained:
[1] = Content uniformity by dose through use testing of salmeterol xinafoate HFA 134a MDI formulations; format: physicochemical; conditions: salmeterol xinafoate 25 mcg per actuation in HFA 134a
Method: Salmeterol xinafoate formulations in HFA 134a, of strength 25 mcg per actuation, and 10% w/w (relative to drug) of the relevant surfactant compound of formula (I) (i.e. Example 3 or Example 4) prepared in aluminum cans with a crimped cap containing a metering valve using salmeterol xinafoate (8.7 mg), HFA 134a (18 g) and the relevant compound (0.87 mg). The control was prepared without the addition of a surfactant. The content uniformity of the formulations was assessed by dose through use testing. Testing was performed on a set of 10 cans/inhalers for each of the formulations, at “beginning of use” (BoU) and “end of use” (EoU). After each inhaler had been primed (4 shots fired to waste), actuations 1 and 2 (BoU) were collected. The next 116 actuations of each inhaler were then fired to waste using an automated method and actuations 119 and 120 (EoU) collected.
In the control there was a rise from beginning to end of use of 5.6 mcg. However, in the presence of the said surfactant compound this rise was reduced to 1.4 mcg for formulations incorporating a compound of Example 3 and 2.8 mcg for formulations incorporating a compound of Example 4. There was also a reduction in the percentage RSD at BoU for the formulations incorporating said surfactant compounds, thereby showing improved can to can reproducibility. Furthermore, there was also a reduction in the percentage RSD at EoU for the formulations incorporating Example 4. The presence of the said surfactants therefore improves the content uniformity of the inhaler.

[2] = Deposition of drug on valve and can of salmeterol xinafoate HFA 134a MDI formulations (HPLC); format: physicochemical; conditions: salmeterol xinafoate 1.50 mg in HFA 134a 3 g, surfactant 0.15 mg (10% w/w relative to drug)
Method: Salmeterol xinafoate formulations in HFA 134a, strength 25 mcg per dose for each of 60 actuations, and 10% w/w (relative to drug) of the relevant surfactant compound of formula (I) (i.e. Example 3 or Example 4) were prepared in aluminum cans with a crimped cap containing a metering valve using salmeterol xinafoate (1.50 mg), HFA 134a (3 g) and the relevant compound (0.15 mg). The control was prepared without the addition of a surfactant.
Cans containing the said formulations for analysis were cooled to […] to liquefy the propellant therein. These were then opened and the contents collected in a vessel. The valve and the empty can were quantitatively washed. The washings for each component were kept separate. The amount of drug in: the contents removed from the can, the valve washings and the can washing was quantified by HPLC analysis.
Therefore, the presence of said surfactants in formulations seems to reduce the deposition of the drug on the can and valve.

BoU Dose % RSD ([1]; can to can reproducibility at beginning of use, 10% w/w surfactant, 10 cans): 0.7%
EoU Dose % RSD ([1]; can to can reproducibility at end of use, 10% w/w surfactant, 10 cans): 13.9%
EoU − BoU (rise in dose from beginning to end of use) ([1]; 10% w/w surfactant relative to drug): 1.4 µg
BoU Dose ([1]; 10% w/w surfactant relative to drug, beginning of use, actuations 1 and 2, 10 cans): 15.8 µg
EoU Dose ([1]; 10% w/w surfactant relative to drug, end of use, actuations 119 and 120, 10 cans): 17.2 µg
Can Deposition ([2]; aluminum can): 0.25 mg
Valve Deposition ([2]; aluminum can): 0.33 mg
Drug Content In Can ([2]; contents removed from can): 0.56 mg
SMILES: COCCOCCOCCOCCCOCC(OCCCOCCOCCOCCOC)C(=O)O (centres unmarked) [Example 3, 17-(4,7,10,13-Tetraoxatetradec-1-yloxy)-2,5,8,11,15-pentaoxaoctadecan-18-oic acid]
